From patent US12581252B2, “Substituted pyrrolo[3,4-b]pyridines as PI3K-α inhibitors” (Relay Therapeutics, Inc., priority 2020, dated 2026)

These compounds were tested against H1047R PIK3CA enzyme (Homo sapiens, UniProt P42336, H1047R) (assay: ADP-Glo Biochemical PIK3CA Kinase Assay).
Sequence of H1047R PIK3CA enzyme (P42336 whole entry H1047R): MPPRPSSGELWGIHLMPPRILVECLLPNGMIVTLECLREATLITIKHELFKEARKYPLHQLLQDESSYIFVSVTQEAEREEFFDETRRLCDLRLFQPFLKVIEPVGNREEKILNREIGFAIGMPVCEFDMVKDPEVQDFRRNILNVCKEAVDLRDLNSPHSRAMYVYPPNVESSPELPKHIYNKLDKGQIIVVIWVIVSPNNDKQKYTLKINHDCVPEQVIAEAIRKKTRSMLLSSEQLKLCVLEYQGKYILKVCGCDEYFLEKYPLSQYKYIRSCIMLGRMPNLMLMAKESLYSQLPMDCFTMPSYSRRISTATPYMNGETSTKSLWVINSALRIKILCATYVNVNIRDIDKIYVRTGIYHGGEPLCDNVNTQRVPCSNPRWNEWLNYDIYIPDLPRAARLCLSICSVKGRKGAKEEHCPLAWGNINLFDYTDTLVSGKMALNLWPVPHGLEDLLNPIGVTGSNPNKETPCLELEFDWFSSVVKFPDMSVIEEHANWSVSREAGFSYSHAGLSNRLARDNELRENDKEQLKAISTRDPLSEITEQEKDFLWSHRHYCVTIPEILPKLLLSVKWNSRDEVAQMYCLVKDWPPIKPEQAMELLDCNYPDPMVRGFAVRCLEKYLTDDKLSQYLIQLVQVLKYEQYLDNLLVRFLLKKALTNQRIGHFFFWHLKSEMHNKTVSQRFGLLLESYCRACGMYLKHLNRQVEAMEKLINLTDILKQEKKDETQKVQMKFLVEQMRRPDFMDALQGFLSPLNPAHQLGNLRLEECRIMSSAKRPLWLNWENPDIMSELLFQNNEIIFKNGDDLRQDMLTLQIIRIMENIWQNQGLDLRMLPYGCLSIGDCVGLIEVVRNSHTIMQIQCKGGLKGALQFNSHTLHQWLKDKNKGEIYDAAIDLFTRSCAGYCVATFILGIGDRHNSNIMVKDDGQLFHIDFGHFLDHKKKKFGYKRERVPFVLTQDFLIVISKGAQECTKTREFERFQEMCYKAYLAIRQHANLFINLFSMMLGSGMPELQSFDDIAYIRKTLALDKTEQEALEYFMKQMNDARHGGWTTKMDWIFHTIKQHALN
Sequence of H1047R PIK3CA enzyme (P27986 whole entry partner): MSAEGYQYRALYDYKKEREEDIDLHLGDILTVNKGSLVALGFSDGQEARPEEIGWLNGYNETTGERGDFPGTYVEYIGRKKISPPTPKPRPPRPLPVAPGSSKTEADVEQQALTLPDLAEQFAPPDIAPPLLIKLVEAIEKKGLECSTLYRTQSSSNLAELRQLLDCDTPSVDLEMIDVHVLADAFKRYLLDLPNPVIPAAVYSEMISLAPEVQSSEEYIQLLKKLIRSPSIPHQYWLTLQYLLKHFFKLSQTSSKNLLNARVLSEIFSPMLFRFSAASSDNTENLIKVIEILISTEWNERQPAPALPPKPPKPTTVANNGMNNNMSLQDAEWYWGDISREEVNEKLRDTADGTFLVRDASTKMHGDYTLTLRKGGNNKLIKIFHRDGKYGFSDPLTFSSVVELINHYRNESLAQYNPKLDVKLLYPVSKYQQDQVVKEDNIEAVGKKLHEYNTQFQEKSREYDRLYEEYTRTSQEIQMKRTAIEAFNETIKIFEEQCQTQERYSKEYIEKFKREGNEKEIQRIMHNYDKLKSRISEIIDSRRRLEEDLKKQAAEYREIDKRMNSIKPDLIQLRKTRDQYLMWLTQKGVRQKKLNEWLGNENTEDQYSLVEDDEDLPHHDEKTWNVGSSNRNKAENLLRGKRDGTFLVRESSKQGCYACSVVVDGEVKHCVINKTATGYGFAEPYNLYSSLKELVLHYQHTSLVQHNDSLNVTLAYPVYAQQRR

SMILES | IC50
O=C1NC(c2cc(F)ccc2Cl)c2c(NC(=O)N3CCC4C3[C@H]4C(F)(F)F)cccc21 (single isomer, unassigned) [Compound I-2328] | 10000 to 100000 nM
CC(C)(CN)n1cc(-c2cc(NC(=O)N3C[C@](O)(C(F)(F)F)c4cc(F)ccc43)c3c(c2)C(=O)N[C@@H]3c2cc(F)ccc2Cl)cn1 (single isomer, unassigned) [Compound I-2650] | 500 to 1000 nM
O=C1N[C@@H](c2cc(F)ccc2Cl)c2c(NC(=O)N3C[C@H](O)c4cc(F)ccc43)cc(-n3nccn3)cc21 (single isomer, unassigned) [Compound I-2343] | 1000 to 10000 nM
O=C(Nc1cc(Br)cc2c1C(c1cc(F)ccc1Cl)NC2=O)c1cc(Cl)ccc1F (centres unmarked) [Compound I-794] | 1000 to 10000 nM
O=C1NC(c2cc(F)ccc2Cl)c2c(NC(=O)[C@H]3C[C@@H](O)C[C@@H](C(F)(F)F)C3)cc(Br)cc21 (some centres unmarked) [Compound I-2027] | 10000 to 100000 nM
O=C1N[C@@H](c2cc(F)ccc2Cl)c2c(NC(=O)N3C[C@](O)(C(F)(F)F)c4cc(F)ccc43)cccc21 (single isomer, unassigned) [Compound I-2515] | 1000 to 10000 nM
[2H][C@@]1(c2cc(F)ccc2Cl)NC(=O)c2cccc(NC(=O)N3C[C@](O)(C(F)(F)F)c4cc(F)ccc43)c21 (single isomer, unassigned) [Compound I-2681] | 1000 to 10000 nM
Nc1nnc2ccc(-c3cc(NC(=O)c4cc(F)cc(C(F)(F)F)c4)c4c(c3)C(=O)N[C@@H]4c3cc(F)ccc3Cl)cn12 [Compound I-1448] | 500 to 1000 nM
CC(C)(CC(F)(F)F)C(=O)Nc1cc(Br)cc2c1C(c1cc(F)ccc1Cl)NC2=O (centres unmarked) [Compound I-1619] | 10000 to 100000 nM
CN1C(=O)CC[C@@H]1COc1cc(NC(=O)c2cc(F)cc(C(F)(F)F)c2)c2c(c1)C(=O)N[C@@H]2c1cc(F)ccc1Cl (single isomer, unassigned) [Compound I-1569] | 10000 to 100000 nM
Cc1cccc(C2(C(=O)Nc3cc(Br)cc4c3C(c3cc(F)ccc3Cl)NC4=O)CCCC2)c1 (centres unmarked) [Compound I-1639] | 10000 to 100000 nM
O=C(Nc1cc(Br)cc2c1C(c1cccc(F)c1F)NC2=O)c1cc(F)cc(C(F)(F)F)c1 (centres unmarked) [Compound I-684] | 1000 to 10000 nM
O=C(Nc1cccc2c1[C@H](NC1CCCC1)NC2=O)c1cc(F)cc(C(F)(F)F)c1 (single isomer, unassigned) [Compound I-2250] | 10000 to 100000 nM
Cc1ccccc1C1NC(=O)c2cccc(NC(=O)C(F)(F)F)c21 (centres unmarked) [Compound I-16] | 10000 to 100000 nM
O=C1N[C@@H](c2cc(F)ccc2Cl)c2c(NC(=O)N3C[C@H](O)C[C@@H]3CC(F)(F)F)cccc21 (racemic) [Compound I-2162] | 1000 to 10000 nM
O=C(Cc1c[nH]c2ccccc12)Nc1cc(Br)cc2c1C(c1cc(F)ccc1Cl)NC2=O (centres unmarked) [Compound I-953] | 10000 to 100000 nM

SMILES | IC50
COc1cc(F)cc(C(=O)Nc2cccc3c2C(c2ccccc2C)NC3=O)c1 (centres unmarked) [Compound I-340] | 1000 to 10000 nM
Cc1ccccc1C1NC(=O)c2cccc(N)c21 (centres unmarked) [Compound I-62] | 10000 to 100000 nM
N#Cc1cnc2ncc(-c3cc(NC(=O)c4cc(F)cc(C(F)(F)F)c4)c4c(c3)C(=O)N[C@@H]4c3cc(F)ccc3Cl)cn12 [Compound I-1858] | 500 to 1000 nM
Cc1cc(Cl)ccc1C1NC(=O)c2cccc(NC(=O)c3nsc4ccccc34)c21 (centres unmarked) [Compound I-133] | 1000 to 10000 nM
O=C1N[C@@H](c2cc(F)ccc2Cl)c2c(NC(=O)[C@H]3CCC[C@@H](OC(F)(F)F)C3)cccc21 (single isomer, unassigned) [Compound I-2218] | 10000 to 100000 nM
C[C@@H](c1nn[nH]c1C(=O)Nc1cccc2c1[C@@H](c1cc(F)ccc1Cl)NC2=O)C(F)(F)F (single isomer, unassigned) [Compound I-2270] | 10000 to 100000 nM
N#Cc1cc(NC(=O)N2C[C@@H](O)c3cc(F)ccc32)c2c(c1)C(=O)N[C@@H]2c1cc(F)ccc1Cl (single isomer, unassigned) [Compound I-2492] | 500 to 1000 nM
O=C1N[C@@H](c2cc(F)ccc2Cl)c2c(NC(=O)N3C[C@H](O)c4cc(F)ccc43)cccc21 (single isomer, unassigned) [Compound I-2126] | 500 to 1000 nM
O=C1NC(c2cc(F)ccc2Cl)c2c(NC(=O)C3CCC3)cc(-c3ccc4ncnn4c3)cc21 (centres unmarked) [Compound I-1778] | 10000 to 100000 nM
O=C(Nc1cc(-c2ccc3cc[nH]c3c2)cc2c1C(c1cc(F)ccc1Cl)NC2=O)c1cc(F)cc(C(F)(F)F)c1 (centres unmarked) [Compound I-855] | 100 to 500 nM
O=C1NC(c2cc(F)ccc2Cl)c2c(NC(=O)C3CC4(C3)CC(F)(F)C4)cc(Br)cc21 (centres unmarked) [Compound I-1622] | 1000 to 10000 nM
CC(F)c1cc(F)cc(C(=O)Nc2cc(Br)cc3c2C(c2cc(F)ccc2Cl)NC3=O)c1 (centres unmarked) [Compound I-1288] | 100 to 500 nM
Cn1ncc(C2NC(=O)c3cccc(NC(=O)c4nsc5ccccc45)c32)c1C(F)F (centres unmarked) [Compound I-241] | 10000 to 100000 nM
Cn1cc(C(=O)Nc2cccc3c2CNC3=O)c2ccccc21 [Compound I-403] | 10000 to 100000 nM
C[C@]1(O)CN(C(=O)Nc2cccc3c2[C@@H](c2cc(F)ccc2Cl)NC3=O)c2ccccc21 (single isomer, unassigned) [Compound I-2203] | 1000 to 10000 nM
Cc1ccccc1C1NC(=O)Oc2cccc(Br)c21 (centres unmarked) [Compound I-10] | 10000 to 100000 nM

Results, then the compound that gave them:

IC50 | SMILES
≤ 100 nM | O=C(Nc1cc(-c2cnn3ncnc3c2)cc2c1C(c1cc(F)ccc1Cl)NC2=O)c1cc(F)cc(C(F)(F)F)c1 (centres unmarked) [Compound I-1824]
≤ 100 nM | Cn1ncnc1COc1cc(NC(=O)c2cc(F)cc(C(F)(F)F)c2)c2c(c1)C(=O)NC2c1cc(F)ccc1Cl (centres unmarked) [Compound I-1221]
≤ 100 nM | O=C(Nc1cc(NC2CCC(O)C2)cc2c1C(c1cc(F)ccc1Cl)NC2=O)c1cc(F)cc(C(F)(F)F)c1 (centres unmarked) [Compound I-359]
≤ 100 nM | O=C(Nc1cc(N[C@H]2C[C@H](F)C2)cc2c1C(c1cc(F)ccc1Cl)NC2=O)c1cc(F)cc(C(F)(F)F)c1 (single isomer, unassigned) [Compound I-540]
≤ 100 nM | N#CC1CC(c2cc(NC(=O)c3cc(F)cc(C(F)(F)F)c3)c3c(c2)C(=O)NC3c2cc(F)ccc2Cl)C1 (centres unmarked) [Compound I-1175]
≤ 100 nM | O=C1NC(c2cc(F)ccc2Cl)c2c(NC(=O)c3csc4ccccc34)cc(Br)cc21 (centres unmarked) [Compound I-626]
≤ 100 nM | O=C(Nc1cc(NC2CC(F)(F)C2)nc2c1C(c1cc(F)ccc1Cl)NC2=O)c1cc(F)cc(C(F)(F)F)c1 (centres unmarked) [Compound I-284]
≤ 100 nM | N#Cc1cn(-c2cc(NC(=O)c3cc(F)cc(C(F)(F)F)c3)c3c(c2)C(=O)NC3c2cc(F)ccc2Cl)cn1 (centres unmarked) [Compound I-1127]
100 to 500 nM | N#Cc1cc(NC(=O)N2C[C@@H](O)c3cc(F)ccc32)c2c(c1)C(=O)N[C@H]2c1cc(F)ccc1Cl (single isomer, unassigned) [Compound I-2493]
100 to 500 nM | N#CCc1cc(NC(=O)N2C[C@@](O)(C(F)F)c3cc(F)ccc32)c2c(c1)C(=O)N[C@H]2c1cc(F)ccc1Cl (single isomer, unassigned) [Compound I-2599]
≤ 100 nM | O=C(Nc1cc(-c2ccc(=O)n(C3CC3)c2)nc2c1C(c1cc(F)ccc1Cl)NC2=O)c1cc(F)cc(C(F)(F)F)c1 (centres unmarked) [Compound I-647]
100 to 500 nM | COCc1cc(NC(=O)c2cc(F)cc(C(F)(F)F)c2)c2c(c1)C(=O)N[C@@H]2c1cc(F)ccc1Cl [Compound I-690]
≤ 100 nM | O=C(CCl)Nc1cc(NC(=O)c2cc(F)cc(C(F)(F)F)c2)c2c(c1)C(=O)NC2c1cc(F)ccc1Cl (centres unmarked) [Compound I-407]
100 to 500 nM | COCCOc1cc(NC(=O)c2cc(F)cc(C(F)(F)F)c2)c2c(c1)C(=O)NC2c1cc(F)ccc1Cl (centres unmarked) [Compound I-977]
≤ 100 nM | O=C1NC(c2ccc(F)cc2Cl)c2c(NC(=O)c3csc4ccccc34)cccc21 (centres unmarked) [Compound I-102]
100 to 500 nM | CC(=O)NCc1cc(NC(=O)c2cc(F)cc(C(F)(F)F)c2)c2c(c1)C(=O)NC2c1cc(F)ccc1Cl (centres unmarked) [Compound I-207]
≤ 100 nM | CN1CCN(c2cc(NC(=O)c3cc(F)cc(C(F)(F)F)c3)c3c(c2)C(=O)NC3c2cc(F)ccc2Cl)CC1 (centres unmarked) [Compound I-304]
≤ 100 nM | N#Cc1cc2ncnn2cc1-c1cc(NC(=O)c2cc(F)cc(C(F)(F)F)c2)c2c(c1)C(=O)N[C@@H]2c1cc(F)ccc1Cl (single isomer, unassigned) [Compound I-1646]
≤ 100 nM | O=C(Nc1cc(C2CC(F)(F)C2)cc2c1C(c1cc(F)ccc1Cl)NC2=O)c1cc(F)cc(C(F)(F)F)c1 (centres unmarked) [Compound I-779]
≤ 100 nM | O=C(Nc1cc(C2CCCN2)cc2c1C(c1cc(F)ccc1Cl)NC2=O)c1cc(F)cc(C(F)(F)F)c1 (centres unmarked) [Compound I-1218]
≤ 100 nM | COc1ccc(-c2cc(NC(=O)c3cc(F)cc(C(F)(F)F)c3)c3c(c2)C(=O)NC3c2cc(F)ccc2Cl)nn1 (centres unmarked) [Compound I-1438]
100 to 500 nM | CN1CCN(c2cc(NC(=O)c3cc(F)cc(C(F)(F)F)c3)c3c(n2)C(=O)NC3c2cc(F)ccc2Cl)CC1 (centres unmarked) [Compound I-291]
≤ 100 nM | N#Cc1cc(NC(=O)c2cc(F)cc(C(F)(F)F)c2)c2c(c1)C(=O)NC2c1cc(F)ccc1Cl (centres unmarked) [Compound I-490]
≤ 100 nM | N#Cc1cnn(-c2cc(NC(=O)N3C[C@@H](O)c4cc(F)ccc43)c3c(c2)C(=O)N[C@H]3c2cc(F)ccc2Cl)c1 (single isomer, unassigned) [Compound I-2405]
100 to 500 nM | O=C(Nc1cc(NC(=O)c2cc(F)cc(C(F)(F)F)c2)c2c(c1)C(=O)N[C@@H]2c1cc(F)ccc1Cl)c1cccnc1 (racemic) [Compound I-1478]
≤ 100 nM | Cn1cc(-c2cc(NC(=O)c3cc(F)cc(C(F)(F)F)c3)c3c(c2)C(=O)N[C@H]3c2cc(F)ccc2Cl)ccc1=O (single isomer, unassigned) [Compound I-702]
100 to 500 nM | O=C(Nc1cc(N2CC3(CCO3)C2)cc2c1C(c1cc(F)ccc1Cl)NC2=O)c1cc(F)cc(C(F)(F)F)c1 (centres unmarked) [Compound I-1310]
≤ 100 nM | O=C(Nc1cc(-c2cnn3ccnc3c2)cc2c1C(c1cc(F)ccc1Cl)NC2=O)c1cc(F)cc(C(F)(F)F)c1 (centres unmarked) [Compound I-1504]
≤ 100 nM | CC(C)(O)c1cc(NC(=O)c2cc(Cl)n3ccccc23)c2c(c1)C(=O)NC2c1cc(F)ccc1C(F)F (centres unmarked) [Compound I-267]
≤ 100 nM | Cn1nc(C(F)F)cc1-c1cc(NC(=O)c2cc(F)cc(C(F)(F)F)c2)c2c(c1)C(=O)N[C@H]2c1cc(F)ccc1Cl [Compound I-1881]
